Reference: ChEMBL document CHEMBL1137199, “Estrogen receptor ligands. Part 8: Dihydrobenzoxathiin SERAMs with heteroatom-substituted side chains” (Bioorg Med Chem Lett, 2004)

What was measured:
Estrogen receptor beta = Estrogen receptor beta (Homo sapiens, UniProt Q92731)
Estrogen receptor = biological target: T1, Estrogen receptor (Homo sapiens, UniProt P03372)
T1 sequence (P03372 whole entry): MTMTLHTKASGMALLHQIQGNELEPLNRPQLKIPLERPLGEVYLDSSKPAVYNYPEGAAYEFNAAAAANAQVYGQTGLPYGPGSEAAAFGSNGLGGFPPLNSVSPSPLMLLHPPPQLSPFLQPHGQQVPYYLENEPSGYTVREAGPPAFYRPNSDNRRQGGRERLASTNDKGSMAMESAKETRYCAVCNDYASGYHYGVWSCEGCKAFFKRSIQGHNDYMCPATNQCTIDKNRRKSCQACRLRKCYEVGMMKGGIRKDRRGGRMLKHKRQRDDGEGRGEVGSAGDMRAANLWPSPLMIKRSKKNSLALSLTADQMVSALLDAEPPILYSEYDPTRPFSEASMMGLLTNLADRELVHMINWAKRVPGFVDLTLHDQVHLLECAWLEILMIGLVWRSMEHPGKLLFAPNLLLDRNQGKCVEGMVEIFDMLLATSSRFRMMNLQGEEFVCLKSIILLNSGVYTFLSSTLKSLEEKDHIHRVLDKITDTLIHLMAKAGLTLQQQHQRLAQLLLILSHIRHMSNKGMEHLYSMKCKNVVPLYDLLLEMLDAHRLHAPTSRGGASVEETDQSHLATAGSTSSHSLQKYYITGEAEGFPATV

MCF7 = experiment: cells; conditions: Homo sapiens

Estrogen receptor beta, sequence (Q92731 whole entry): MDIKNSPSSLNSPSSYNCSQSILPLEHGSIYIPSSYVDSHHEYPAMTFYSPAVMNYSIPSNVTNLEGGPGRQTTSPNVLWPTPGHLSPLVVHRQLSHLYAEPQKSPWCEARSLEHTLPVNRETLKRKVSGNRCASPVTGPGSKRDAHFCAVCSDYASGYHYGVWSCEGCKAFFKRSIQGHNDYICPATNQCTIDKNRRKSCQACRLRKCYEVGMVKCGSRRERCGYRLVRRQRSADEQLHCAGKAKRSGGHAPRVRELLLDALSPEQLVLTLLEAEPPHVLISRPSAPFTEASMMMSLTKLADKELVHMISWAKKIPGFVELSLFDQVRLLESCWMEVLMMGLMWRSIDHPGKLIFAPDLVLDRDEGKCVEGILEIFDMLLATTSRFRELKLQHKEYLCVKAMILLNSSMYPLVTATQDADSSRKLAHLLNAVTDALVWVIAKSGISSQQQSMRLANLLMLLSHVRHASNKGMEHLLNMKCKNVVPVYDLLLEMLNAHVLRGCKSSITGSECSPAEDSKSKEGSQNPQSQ

Row | IC50 (Estrogen receptor beta) | IC50 (Estrogen receptor) | IC50 (MCF7) | Structure (SMILES)
1 | 116 nM | 2.5 nM |  | Oc1ccc([C@H]2Sc3cc(O)ccc3O[C@H]2c2ccc(OCCN3CCC(F)CC3)cc2)cc1
2 | 331 nM | 1.8 nM | 7.5 nM | Oc1ccc([C@H]2Sc3cc(O)ccc3O[C@H]2c2ccc(OCCN3CCC(O)CC3)cc2)cc1
3 | 436 nM | 2.2 nM | 11.3 nM | OCC1CCN(CCOc2ccc([C@@H]3Oc4ccc(O)cc4S[C@@H]3c3ccc(O)cc3)cc2)CC1
4 | 366 nM | 2.2 nM | 21 nM | NC(=O)C1CCN(CCOc2ccc([C@@H]3Oc4ccc(O)cc4S[C@@H]3c3ccc(O)cc3)cc2)CC1
5 | 59 nM | 0.5 nM | 3.8 nM | Oc1ccc([C@H]2Sc3cc(O)ccc3O[C@H]2c2ccc(OCCN3CC[C@@H](F)C3)cc2)cc1
6 | 81 nM | 1.7 nM | 0.6 nM | Oc1ccc([C@H]2Sc3cc(O)ccc3O[C@H]2c2ccc(OCCN3CC[C@@H](O)C3)cc2)cc1
7 | 267 nM | 2 nM | 42.3 nM | Oc1ccc([C@H]2Sc3cc(O)ccc3O[C@H]2c2ccc(OCCN3CCC4(CC3)OCCO4)cc2)cc1
8 | 81 nM | 3.9 nM | 1.9 nM | OC[C@@H]1CCCN1CCOc1ccc([C@@H]2Oc3ccc(O)cc3S[C@@H]2c2ccc(O)cc2)cc1
9 | 134 nM | 2 nM | 3.2 nM | OC[C@H]1CCCN1CCOc1ccc([C@@H]2Oc3ccc(O)cc3S[C@@H]2c2ccc(O)cc2)cc1
10 | 1110 nM | 7.3 nM | 42.5 nM | OCCC1CCN(CCOc2ccc([C@@H]3Oc4ccc(O)cc4S[C@@H]3c3ccc(O)cc3)cc2)CC1
11 | 275 nM | 16 nM | 42 nM | Oc1ccc([C@H]2Sc3cc(O)ccc3O[C@H]2c2ccc(OCCN3CCC(F)(F)CC3)cc2)cc1

Row | Structure (SMILES) | IC50 (Estrogen receptor beta) | IC50 (Estrogen receptor) | IC50 (MCF7)
12 | O=S1(=O)CCN(CCOc2ccc([C@@H]3Oc4ccc(O)cc4S[C@@H]3c3ccc(O)cc3)cc2)CC1 | 247 nM | 2 nM | 26.3 nM
13 | Oc1ccc([C@H]2Sc3cc(O)ccc3O[C@H]2c2ccc(OCCN3CCSCC3)cc2)cc1 | 72 nM | 1.5 nM | 15.6 nM
